Values quoted from earlier work in patent US20110224245A1, “Treatment Of Neurological Disorders Using Huperzine” (President and Fellows of Harvard College, priority 2008, published 2011).

Test system: 6 Hz seizures
Conditions: established antiepileptic drugs; cited from earlier work

Compound	efficacy in the 6 Hz psychomotor seizure model
NC(=O)N1c2ccccc2C=Cc2ccccc21 [carbamazepine]	limited efficacy
Nc1nnc(-c2cccc(Cl)c2Cl)c(N)n1 [lamotrigine]	limited efficacy
O=C1NC(=O)C(c2ccccc2)(c2ccccc2)N1 [phenyloin]	limited efficacy
CC1(C)O[C@@H]2[C@@H](CO[C@@]3(COS(N)(=O)=O)OC(C)(C)O[C@@H]23)O1 [topiramate]	limited efficacy
